The values that follow come from patent US8481531B2, “Bicyclic heterocyclyl derivatives as FGFR kinase inhibitors for therapeutic use” (Astex Therapeutics Ltd, priority 2009, dated 2013).

The target in one series is T1, FGFR3 (Homo sapiens, UniProt P22607).
T1 construct: purchased Upstate
Put plainly: FGFR3 in vitro kinase inhibitory activity assay (TRF). The settings on record: 8 μM ATP, 3 hours; read-out: FGFR3 IC50(μM) or % I. Type of series: biochemical.

The target of another series is T2, VEGFR2 (Homo sapiens, UniProt P35968).
T2 construct: purchased Upstate
Put plainly: VEGFR2 in vitro kinase inhibitory activity assay (TRF). Type of series: biochemical. The settings on record: 0.5 μM ATP, 1 hour; read-out: VEGFR2 IC50(μM) or % I.

The test system of series [1] is parental wild-type Ba/F3 cells. Put plainly: Ba/F3 (WT) cell proliferation assay (Alamar Blue). Type of series: cell-based. The settings on record: BaF3, 72 hours, read-out: BaF3 WT prolif; for IC50: with mouse IL-3. An outline of the steps: (§1)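 Ba/F3-TEL-FGFR3 cells (5×10^3/well, G418) and parental Ba/F3 (2.5×10^3/well, 2 ng/ml mouse IL-3) in RPMI/10% FBS, plated overnight, then compound for 72 h at 0.1% DMSO final. Alamar Blue 4-6 h, fluorescence 535/590 nm; IC50 where inhibition high.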
In general terms: Alamar Blue is a resazurin reagent that responds to reducing activity.

In a further series the target is T3, Ba/F3-TEL-FGFR3 cells (Homo sapiens, UniProt P22607).
T3 construct: fused on or other part: P41212 (Transcription factor ETV6)
Put plainly: Ba/F3-TEL-FGFR3 cell proliferation assay (Alamar Blue). The settings on record: 72 hours; for GI50: read-out: BaF3-TEL-FGFR3 prolif. Type of series: cell-based. An outline of the steps:
as §1

T1 sequence (P22607 23-806): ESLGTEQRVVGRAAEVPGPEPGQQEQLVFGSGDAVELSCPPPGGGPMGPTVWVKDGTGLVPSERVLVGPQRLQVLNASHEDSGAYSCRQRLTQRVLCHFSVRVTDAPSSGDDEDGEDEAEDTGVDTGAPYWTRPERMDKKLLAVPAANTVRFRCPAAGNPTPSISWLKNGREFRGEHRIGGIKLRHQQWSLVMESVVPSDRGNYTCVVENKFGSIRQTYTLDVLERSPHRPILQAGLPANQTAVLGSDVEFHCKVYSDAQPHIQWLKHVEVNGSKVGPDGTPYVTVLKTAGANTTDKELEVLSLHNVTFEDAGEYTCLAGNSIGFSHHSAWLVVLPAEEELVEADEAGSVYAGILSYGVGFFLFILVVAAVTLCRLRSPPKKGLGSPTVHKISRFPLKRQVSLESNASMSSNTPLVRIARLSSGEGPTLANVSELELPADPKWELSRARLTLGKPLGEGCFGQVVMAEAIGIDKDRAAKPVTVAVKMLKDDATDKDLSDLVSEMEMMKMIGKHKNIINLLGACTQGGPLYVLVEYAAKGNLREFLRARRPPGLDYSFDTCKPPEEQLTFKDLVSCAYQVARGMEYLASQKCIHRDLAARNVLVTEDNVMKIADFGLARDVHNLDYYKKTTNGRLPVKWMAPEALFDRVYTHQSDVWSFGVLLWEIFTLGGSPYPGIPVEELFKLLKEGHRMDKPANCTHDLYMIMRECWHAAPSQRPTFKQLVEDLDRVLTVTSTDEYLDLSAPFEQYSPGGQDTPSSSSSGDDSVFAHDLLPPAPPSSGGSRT
T3 sequence (P22607 whole entry, change not shown, the tested form may be a part): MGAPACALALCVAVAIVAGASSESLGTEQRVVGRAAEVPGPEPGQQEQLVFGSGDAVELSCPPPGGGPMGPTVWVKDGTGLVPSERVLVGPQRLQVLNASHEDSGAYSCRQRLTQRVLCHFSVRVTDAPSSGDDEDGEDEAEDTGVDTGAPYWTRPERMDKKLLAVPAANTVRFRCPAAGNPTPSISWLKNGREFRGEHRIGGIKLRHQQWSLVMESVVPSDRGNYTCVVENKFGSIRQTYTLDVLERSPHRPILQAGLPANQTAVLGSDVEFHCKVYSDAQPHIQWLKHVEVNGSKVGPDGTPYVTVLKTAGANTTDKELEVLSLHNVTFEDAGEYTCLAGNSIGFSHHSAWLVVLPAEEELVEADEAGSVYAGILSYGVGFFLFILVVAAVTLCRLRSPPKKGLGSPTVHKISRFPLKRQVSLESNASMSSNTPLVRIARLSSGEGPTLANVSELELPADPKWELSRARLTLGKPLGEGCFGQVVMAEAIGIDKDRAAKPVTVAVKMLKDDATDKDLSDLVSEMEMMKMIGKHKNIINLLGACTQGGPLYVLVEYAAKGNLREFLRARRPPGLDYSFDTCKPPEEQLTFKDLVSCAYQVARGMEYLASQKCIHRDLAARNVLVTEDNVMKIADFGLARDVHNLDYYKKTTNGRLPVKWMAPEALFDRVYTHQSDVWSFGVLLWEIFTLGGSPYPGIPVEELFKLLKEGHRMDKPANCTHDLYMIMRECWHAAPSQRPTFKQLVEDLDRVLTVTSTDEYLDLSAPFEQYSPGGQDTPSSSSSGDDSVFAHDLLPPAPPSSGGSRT
T2 sequence (P35968 20-1356): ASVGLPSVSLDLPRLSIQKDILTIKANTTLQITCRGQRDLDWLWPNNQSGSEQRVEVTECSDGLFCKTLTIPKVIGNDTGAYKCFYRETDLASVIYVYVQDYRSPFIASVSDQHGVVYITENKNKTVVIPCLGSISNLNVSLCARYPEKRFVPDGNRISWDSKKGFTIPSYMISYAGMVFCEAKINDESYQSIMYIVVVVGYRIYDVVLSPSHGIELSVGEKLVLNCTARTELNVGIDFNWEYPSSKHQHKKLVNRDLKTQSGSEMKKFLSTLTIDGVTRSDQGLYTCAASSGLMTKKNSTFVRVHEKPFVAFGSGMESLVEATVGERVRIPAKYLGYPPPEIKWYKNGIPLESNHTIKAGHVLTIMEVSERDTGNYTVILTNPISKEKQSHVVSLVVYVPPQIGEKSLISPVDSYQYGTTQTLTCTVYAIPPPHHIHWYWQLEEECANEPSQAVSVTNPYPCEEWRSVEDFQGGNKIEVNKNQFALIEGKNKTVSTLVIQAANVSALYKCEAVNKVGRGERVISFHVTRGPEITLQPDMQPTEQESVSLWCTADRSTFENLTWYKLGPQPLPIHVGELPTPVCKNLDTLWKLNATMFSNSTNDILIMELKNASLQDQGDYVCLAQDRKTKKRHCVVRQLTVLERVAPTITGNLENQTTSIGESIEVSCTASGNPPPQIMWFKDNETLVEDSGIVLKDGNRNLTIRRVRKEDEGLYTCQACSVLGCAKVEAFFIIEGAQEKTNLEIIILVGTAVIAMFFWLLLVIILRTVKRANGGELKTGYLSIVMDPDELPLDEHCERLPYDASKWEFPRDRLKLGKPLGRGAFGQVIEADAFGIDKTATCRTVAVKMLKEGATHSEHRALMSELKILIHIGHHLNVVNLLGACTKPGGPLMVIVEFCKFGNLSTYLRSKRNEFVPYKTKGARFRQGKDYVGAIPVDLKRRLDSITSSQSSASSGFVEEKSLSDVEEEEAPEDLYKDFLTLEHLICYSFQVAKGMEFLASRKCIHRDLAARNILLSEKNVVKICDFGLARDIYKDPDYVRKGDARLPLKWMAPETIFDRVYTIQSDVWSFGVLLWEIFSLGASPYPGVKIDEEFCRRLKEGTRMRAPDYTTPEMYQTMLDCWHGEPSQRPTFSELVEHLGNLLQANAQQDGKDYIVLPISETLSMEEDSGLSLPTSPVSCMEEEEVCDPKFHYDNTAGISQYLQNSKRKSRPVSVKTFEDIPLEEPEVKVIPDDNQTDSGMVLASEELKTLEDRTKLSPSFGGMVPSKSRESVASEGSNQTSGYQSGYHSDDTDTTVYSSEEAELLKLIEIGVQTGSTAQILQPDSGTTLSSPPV

As to `CS(=O)(=O)CCNCCON=Cc1ccn2c(-c3cccc(NC(=O)NCC(F)(F)F)c3)cnc2c1` [Compound 1-52, 1-[3-(7-{[2-(2-Methanesulfonyl-ethylamino)-ethoxyimino]-methyl}-imidazo[1,2-a]pyridin-3-yl)-phenyl]-3-(2,2,2-trifluoro-ethyl)-urea], the results for the IC50 on FGFR3 and on VEGFR2 were 0.026 µM and 0.73 µM, respectively. For the same molecule, in series [1] (Mus musculus), the inhibition at 10 µM is 25%. Further, the GI50 on Ba/F3-TEL-FGFR3 cells is 4900 nM.

For `COCCNCCON=Cc1ccn2c(-c3cccc(NC(=O)NCC(F)(F)F)c3)cnc2c1` [Compound 1-53, 1-[3-(7-{[2-(2-Methoxy-ethylamino)-ethoxyimino]-methyl}-imidazo[1,2-a]pyridin-3-yl)-phenyl]-3-(2,2,2-trifluoro-ethyl)-urea], the IC50 stood at 0.035 µM on FGFR3, 0.81 µM at VEGFR2 and 13000 nM in series [1]. The GI50 at Ba/F3-TEL-FGFR3 cells amounted to 480 nM.

Regarding `O=C(NCC(F)(F)F)Nc1cccc(-c2cnc3cc(C=NOCCO)ccn23)c1` [Compound 1-54, 1-(3-{7-[(2-Hydroxy-ethoxyimino)-methyl]-imidazo[1,2-a]pyridin-3-yl}-phenyl)-3-(2,2,2-trifluoro-ethyl)-urea], the IC50 at FGFR3 is 0.021 µM; on VEGFR2 it was 0.62 µM; in series [1], 510 nM. At Ba/F3-TEL-FGFR3 cells, the GI50 was 500 nM.

In the case of `O=C(NCC(F)(F)F)Nc1cccc(-c2cnc3cc(C=NOCc4cccnc4)ccn23)c1` [Compound 1-55, 1-(3-{7-[(Pyridin-3-ylmethoxyimino)-methyl]-imidazo[1,2-a]pyridin-3-yl}-phenyl)-3-(2,2,2-trifluoro-ethyl)-urea], the IC50 was found to be 0.0077 µM on FGFR3 and 0.38 µM on VEGFR2. For the same molecule, the inhibition at 3 µM in series [1] (Mus musculus) came to 51%. Further, on Ba/F3-TEL-FGFR3 cells, the GI50 is 140 nM.

Take `CN1CCN(CCCON=Cc2ccn3c(-c4cccc(NC(=O)NCC(F)(F)F)c4)cnc3c2)CC1` [Compound 1-56, 1-[3-(7-{[3-(4-Methyl-piperazin-1-yl)-propoxyimino]-methyl}-imidazo[1,2-a]pyridin-3-yl)-phenyl]-3-(2,2,2-trifluoro-ethyl)-urea]: the IC50 at FGFR3 was found to be 0.019 µM; at VEGFR2 it was 0.38 µM; in series [1] it was 3000 nM. For the same molecule, the GI50 at Ba/F3-TEL-FGFR3 cells was determined as 320 nM.

Turning to `CN(C)CCON=Cc1ccn2c(-c3cccc(NC(=O)NCC(F)(F)F)c3)cnc2c1` [Compound 1-57, 1-(3-{7-[(2-Dimethylamino-ethoxyimino)-methyl]-imidazo[1,2-a]pyridin-3-yl}-phenyl)-3-(2,2,2-trifluoro-ethyl)-urea], the figures for the IC50 on FGFR3 and at VEGFR2 were 0.029 µM and 0.47 µM, respectively. Besides, the inhibition at 3 µM in series [1] (Mus musculus) amounted to 30%. Also, the GI50 on Ba/F3-TEL-FGFR3 cells is 250 nM.

With `CN(CCO)CCON=Cc1ccn2c(-c3cccc(NC(=O)NCC(F)(F)F)c3)cnc2c1` [Compound 1-58, 1-{3-[7-({2-[(2-Hydroxy-ethyl)-methyl-amino]-ethoxyimino}-methyl)-imidazo[1,2-a]pyridin-3-yl]-phenyl}-3-(2,2,2-trifluoro-ethyl)-urea], the IC50 amounted to 0.029 µM at FGFR3 and 0.34 µM at VEGFR2. Besides, in series [1] (Mus musculus), the inhibition at 10 µM worked out at 55%. Also, at Ba/F3-TEL-FGFR3 cells, the GI50 was determined as 780 nM.

With `O=C(NCC(F)(F)F)Nc1cccc(-c2cnc3cc(C=NOCCC4CCNCC4)ccn23)c1` [Compound 1-59, 1-(3-{7-[(2-Piperidin-4-yl-ethoxyimino)-methyl]-imidazo[1,2-a]pyridin-3-yl}-phenyl)-3-(2,2,2-trifluoro-ethyl)-urea], the IC50 was determined as 0.024 µM on FGFR3 and 0.33 µM at VEGFR2. In addition, the inhibition at 10 µM in series [1] (Mus musculus) was found to be 11%. Moreover, the “BaF3-TEL-FGFR3 prolif (μM)” value on Ba/F3-TEL-FGFR3 cells (% at 3.00 μM) is on record as 42.0% at.

As for `N#CCCN1CCN(CCCON=Cc2ccn3c(-c4cccc(NC(=O)NCC(F)(F)F)c4)cnc3c2)CC1` [Compound 1-60, 1-{3-[7-({3-[4-(2-Cyano-ethyl)-piperazin-1-yl]-propoxyimino}-methyl)-imidazo[1,2-a]pyridin-3-yl]-phenyl}-3-(2,2,2-trifluoro-ethyl)-urea], the IC50 was 0.022 µM at FGFR3 and 0.56 µM at VEGFR2. In addition, in series [1] (Mus musculus, % at 1.00 μM), the inhibition at 1 µM was found to be 0%. In addition, the “BaF3-TEL-FGFR3 prolif (μM)” value at Ba/F3-TEL-FGFR3 cells (% at 1.00 μM) is listed as 85.0% at.

Take `O=C(NCC(F)(F)F)Nc1cccc(-c2cnc3cc(C=NOCC(O)CNC4CC4)ccn23)c1` (centres unmarked) [Compound 1-61, 1-(3-{7-[(3-Cyclopropylamino-2-hydroxy-propoxyimino)-methyl]-imidazo[1,2-a]pyridin-3-yl}-phenyl)-3-(2,2,2-trifluoro-ethyl)-urea]: the results for the IC50 on FGFR3 and on VEGFR2 were 0.029 µM and 0.44 µM, respectively. In series [1] (Mus musculus), the inhibition at 3 µM came out at 30%. Also, the GI50 at Ba/F3-TEL-FGFR3 cells is 930 nM.

Turning to `C/C(=N\OCCO)c1ccn2c(-c3cccc(NC(=O)NCC(F)(F)F)c3)cnc2c1` [Compound 1-62, 1-[3-(7-{1-2-Hydroxy-ethoxyimino-ethyl}-imidazo[1,2-a]pyridin-3-yl)-phenyl]-3-(2,2,2-trifluoro-ethyl)-urea], the IC50 was 0.0035 µM on FGFR3 and 0.051 µM on VEGFR2. For the same molecule, the inhibition at 10 µM in series [1] (Mus musculus) turned out to be 45%. Besides, the GI50 at Ba/F3-TEL-FGFR3 cells came out at 110 nM.

Turning to `CN(C)S(=O)(=O)N1CCN(CCCO/N=C/c2ccn3c(-c4cccc(NC(=O)NCC(F)(F)F)c4)cnc3c2)CC1` [Compound 1-63, 4-{3-[1-(3-{3-[3-(2,2,2-Trifluoro-ethyl)-ureido]-phenyl}-imidazo[1,2-a]pyridin-7-yl)-meth-(E)-ylideneaminooxy]-propyl}-piperazine-1-sulfonic acid dimethylamide], the IC50 on FGFR3 came to 0.016 µM; on VEGFR2 it was 0.5 µM. Also, in series [1] (Mus musculus), the inhibition at 3 µM turned out to be 45%. For the same molecule, at Ba/F3-TEL-FGFR3 cells, the GI50 worked out at 310 nM.

The term melting point denotes the temperature of the solid-liquid transition. Take `CC(C)Oc1cc(NC(=O)NCC(F)(F)F)cc(-c2cnc3cc(/C(=N/O)C4CC4)ccn23)c1` [Compound 1-66, 1-[3-(7-{Cyclopropyl-[(E)-hydroxyimino]-methyl}-imidazo[1,2-a]pyridin-3-yl)-5-isopropoxy-phenyl]-3-(2,2,2-trifluoro-ethyl)-urea]: the melting point is 222 to 223 °C. Further, the IC50 on VEGFR2 came out at 1.4 µM.
